Here are results for one compound from publication PMC9351465, “Mechanism-based heparanase inhibitors reduce cancer metastasis in vivo” (Proceedings of the National Academy of Sciences of the …, 2022).

Several values for one entry are separate records, joined by “and”; a condition that tells them apart may be missing. Identical values can stand only once.

The target of one assay is T1, human platelet HPSE (Homo sapiens, UniProt Q9Y251).
T1 sequence (Q9Y251 158-543 limits assumed): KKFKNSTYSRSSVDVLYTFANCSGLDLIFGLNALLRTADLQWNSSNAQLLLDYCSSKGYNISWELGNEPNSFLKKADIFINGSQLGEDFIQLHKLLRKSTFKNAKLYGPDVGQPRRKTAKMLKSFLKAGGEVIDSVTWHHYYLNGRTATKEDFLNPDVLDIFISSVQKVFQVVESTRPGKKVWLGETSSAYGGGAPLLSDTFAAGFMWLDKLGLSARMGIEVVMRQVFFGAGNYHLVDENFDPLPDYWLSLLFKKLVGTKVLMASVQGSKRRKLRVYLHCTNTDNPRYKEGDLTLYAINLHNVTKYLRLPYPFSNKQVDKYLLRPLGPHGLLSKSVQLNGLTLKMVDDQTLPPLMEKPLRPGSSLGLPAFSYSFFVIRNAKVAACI
T1 sequence (Q9Y251 36-109 limits assumed): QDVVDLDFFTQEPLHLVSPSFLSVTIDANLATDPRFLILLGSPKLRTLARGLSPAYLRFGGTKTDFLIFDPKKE
As to the kind of experiment: cABPP of human platelet lysates, HPSE band.

Assay [1] addresses T2, HPSE (Homo sapiens, UniProt Q9Y251).
T2 sequence (Q9Y251 158-543 limits assumed): T1 sequence (Q9Y251 158-543 limits assumed)
T2 sequence (Q9Y251 36-109 limits assumed): T1 sequence (Q9Y251 36-109 limits assumed)
Description: H35SPG basement membrane (ECM) digest by recombinant HPSE. The format is biochemical. The source says:
Finally, we assessed our inhibitors against HPSE-mediated degradation of bona fide HSPGs in an ECM environment. Cultured bovine corneal endothelial cells secrete a subendothelial basement membrane material rich in proteoglycans, which can be radiolabeled by growth in the presence of ^35SO4^2− ([50]). Solubilized H^35S chains released from H^35SPGs by HPSE digestion can be resolved chromatographically, with HPSE inhibition leading to a corresponding loss of signal. […] We also tested inhibition of endogenous cellular HPSE using this assay format. […]
ECM coated 35 mm culture dishes containing 35S labelled HS were prepared as previously described (10). Briefly, bovine corneal endothelial cells were plated at an initial density of 2x10^5 cells/ml, with 4% dextran T-40 (Sigma) included in the growth medium. Na235SO4 (25 µCi/ml) was added to the incubation medium on days 2 and 5 after seeding. On day 12, subendothelial ECM is exposed by dissolving the cells with PBS containing 0.5% Triton X-100 and 20 mM NH4OH, followed by four washes with PBS.
For HS-degradation assays, ECM coated dishes were incubated with 200 ng recombinant HPSE in 1 mL reaction mixture (10 mM buffer Phosphate-Citrate pH 6.0, 50 mM NaCl, 1 mM DTT, 1 mM CaCl2) containing HPSE inhibitors or DMSO control. Plates were incubated at 37°C for 5 h, then assay medium collected and applied to a 0.9×30 cm Sepharose 6B size exclusion column. The Sepharose 6B column was eluted with PBS, and 35S radioactivity of 0.2 mL fractions quantitated using a liquid scintillation analyzer (Packard BioScience) (11). […]
Matrigel and […]
non-migrating cells in the upper side of the Boyden filter were removed by swabbing, then invading cells on the bottom side of the transwell filter imaged for analysis. […]
B16 melanoma - Twenty minutes before tumor cell inoculation, C57BL/J6 mice (n=5) were injected intraperitoneally with vehicle alone (PBS), compound 2 (300 nmol/mouse), or SST0001 (150 µg/mouse). Mice were subsequently intravenously inoculated with 1.5x105

The target in assay [2] is T3, endogenous cellular HPSE (U87 glioma cells) (Homo sapiens, UniProt Q9Y251).
T3 construct: endogenous in cells; host or cells: U87 glioma cells
T3 sequence (Q9Y251 158-543 limits assumed): T1 sequence (Q9Y251 158-543 limits assumed)
T3 sequence (Q9Y251 36-109 limits assumed): T1 sequence (Q9Y251 36-109 limits assumed)
Description: H35SPG digest by U87 glioma cell lysates, inhibitor before or after lysis. The assay is classed as cell-based. The following applies: inhibitor applied before or after lysis, 18 h digest. The source says:
Finally, we assessed our inhibitors against HPSE-mediated degradation of bona fide HSPGs in an ECM environment. Cultured bovine corneal endothelial cells secrete a subendothelial basement membrane material rich in proteoglycans, which can be radiolabeled by growth in the presence of ^35SO4^2− ([50]). Solubilized H^35S chains released from H^35SPGs by HPSE digestion can be resolved chromatographically, with HPSE inhibition leading to a corresponding loss of signal. […] We also tested inhibition of endogenous cellular HPSE using this assay format.
Figure S7 Radiolabelled H35SPG basement membrane digests by HPSE expressing U87 cell […]
(1 picture or pasted object on this page, not shown here)
For HS-degradation assays, ECM coated dishes were incubated with 200 ng recombinant HPSE in 1 mL reaction mixture (10 mM buffer Phosphate-Citrate pH 6.0, 50 mM NaCl, 1 mM DTT, 1 mM CaCl2) containing HPSE inhibitors or DMSO control. […] The Sepharose 6B column was eluted with PBS, and 35S radioactivity of 0.2 mL fractions quantitated using a liquid scintillation analyzer (Packard BioScience) (11). […]
Cells in the upper chamber were separated by Matrigel from a lower chamber containing 600 µL DMEM, supplemented with 10% FBS. […] 10 randomly selected microscopic fields were recorded, and cell invasion calculated using ImageJ, by quantitating the percentage of the field stained by crystal violet. […]

The target of assay [3] is T2, HPSE. As to the kind of experiment: competitive activity-based protein profiling (cABPP) with ABP 7, recombinant HPSE. The conditions noted are these: recombinant HPSE 20 nM, 1 h preincubation at 37°C, then 100 nM ABP 7, pH 5.5.

Consider `CC(=O)N[C@H]1[C@@H](O[C@H]2[C@H](O)[C@@H](O)[C@@H]3O[C@@H]3[C@@H]2C(=O)O)O[C@H](CO)[C@@H](O)[C@@H]1O` [compound 2], for which the IC50 against human platelet HPSE (HPSE IC50, human platelet lysates, cABPP, n = 3) is ~530 nM and 530 nM. Besides, the “selectivity of HPSE inhibition in platelet lysates” value on human platelet HPSE (human platelet lysates containing both HPSE and GUSB) is listed as “highly selective inhibition of human platelet HPSE”. The “inhibition of recombinant HPSE-mediated H35SPG cleavage” value on HPSE [1] (200 ng HPSE, pH 6.0, 37°C, 5 h) is on record as “robust, dose-dependent inhibition”. Moreover, on HPSE [1] (1 μM 2 or 3 compared to 4.6 μM 10), the “level of inhibition of H35SPG cleavage relative to 4.6 μM 10” value is recorded as “comparable levels of inhibition”. For the same compound, the “inhibition of intracellular HPSE pool (cell penetration)” value in assay [2] is “can also penetrate cells to inhibit the intracellular HPSE pool”. Moreover, the “HPSE inhibition (cABPP)” value at HPSE [3] is “nanomolar HPSE inhibition potencies”.

Broadly, the IC50 is the concentration that gives 50% inhibition. A low value points to greater potency.
